From patent US9266872B2, “2-hydroxyarylamide derivative or pharmaceutically acceptable salt thereof, preparation method thereof, and pharmaceutical composition for preventing or treating cancer containing same as active ingredient” (KOREA RESEARCH INSTITUTE OF BIOSCIENCE AND BIOTECHNOLOGY, priority 2011, dated 2016)
Read-outs that look alike come from different tables or passages of the source.

Key:
[1] = tested on: TMPRSS4 over-expressing colorectal cancer cell line SW480; experiment: Inhibitory effect on infiltration of cancer cells over-expressing TMPRSS4 (matrigel trans-well); type: cell-based; conditions: Homo sapiens, read-out: Inhibition rate of target-expressing colorectal cancer cell activity (%, 0.1~2 uM)
Protocol: The cells were distributed in a 6-well plate at the density of 3×10^5 cells/well, followed by transfection. 48 hours later, the medium was replaced with a selection medium (800 μg/ml G418 medium). G418-resistant clone was separated, followed by culture for 2 weeks, during which selection was performed.
The cancer cell line constructed in step 1 was distributed in a 24-well trans-well plate (8 μm pore size; Costar, USA) whose porous membrane was coated with 100 μl of matrigel (BD Biosciences, USA) diluted with serum-free medium at the concentration of 250 μg/ml, which stood at room temperature for 1 hour for solidification. Lower chamber of the trans-well plate was coated with 100 μl of collagen type I (Sigma) at the concentration of 20 μg/ml. […] While culturing the cells in a 37, 5% CO2 incubator for 48 hours, cell migration from the upper chamber to lower chamber was allowed. […] The excessive crystal violet solution was washed away with distilled water. The migrated cell number was counted from 5 randomly selected areas (×200). The experiment was repeated at least twice under the same condition, and the representative result was presented.
The inhibitory effect of each compound on the infiltration of TMPRSS4 over-expressing colorectal cancer cell line SW480 was calculated by Mathematical Formula 1, which presents the number of infiltrated cells with % by the number of infiltrated cells in the negative control treated with DMSO. Infiltration Inhibition Rate (%)=100−Infiltrated cell number with the treatment of each compound/Infiltrated cell number with the treatment of DMSO×100 [Mathematical Formula 1]

[2] = target: T1, TMPRSS4 serine protease (Homo sapiens, UniProt Q9NRS4); experiment: Inhibitory effect on TMPRSS4 serine protease activity using peptide substrate; type: biochemical; conditions: for Intracellular protease activity Inhibition % 10 uM / inhibition at 10 µM: 10 uM compound; for inhibition at 10 µM: read-out: Intracellular protease activity Inhibition % 10 uM; for inhibition at 30 µM: read-out: Intracellular protease activity Inhibition % 30 uM; for inhibition at 100 µM: read-out: Intracellular protease activity Inhibition % 100 uM
T1 construct: TMPRSS4 serine protease domain (205th Val˜437th Leu) was cloned in pET21b/NdeI-XhoI; inferred from pET21b XhoI cloning and Ni-NTA purification) (C); made in house; host or cells: E. coli BL21 (DE3)
Protocol: TMPRSS4 serine protease domain (205th Val˜437th Leu) was cloned in pET21b/NdeI-XhoI, which was introduced in E. coli BL21 (DE3). At this time, FlagX2-enterokinase cleavage site ([…]; total 15 amino acids) was inserted in N-terminal of TMPRSS4 serine protease domain as shown in FIG. 1. The forward and reverse primers for PCR used for the cloning were presented by SEQ. ID. NO: 1 and NO: 2.
The cells were cultured in 10 ml of LB containing ampicillin at 37° C. overnight. IL of LB+ampicillin was added thereto, followed by further culture until OD reached 0.6˜0.8. 0.1 mM IPTG was added thereto, followed by further culture for 16 hours. Cell pellet was obtained, purified by Ni-NTA (Qiagen), and dialyzed. TMPRSS4 serine protease (pro-form) labeled with 2 mg of 2Xflag-enterokinase cleavage site was conjugated to Ni-NTA resin (4°, overnight). Enterokinase (NEB) was treated thereto at the concentration of 0.0002%/w/w at room temperature for 5 hours. The sample was washed, eluted with 50 mM imidazole in 20 mM of sodium phosphate buffer, and then dialyzed.
The protein activity was evaluated by measuring fluorescence shown during hydrolysis of the peptide. […] Reaction was induced after adding 100 μM of the peptide substrate into reaction buffer (50 mM Tris-HCl (pH 8.0), 10 mM CaCl2, 1 μM ZnCl2). Then, fluorescence was measured at 5 minutes interval (excitation 385 nm, emission 455 nm).
Then, fluorescence (excitation 385 nm/emission 455 nm) was measured at 5 minutes interval for 150 minutes. […] Dimethylsulfoxide (DMSO) was used as the negative control.

[3] = kallikrein peptide substrate 100 μM, DMSO negative control
[4] = 30 uM compound, kallikrein peptide substrate 100 μM, DMSO negative control
[5] = 100 uM compound, kallikrein peptide substrate 100 μM, DMSO negative control
[6] = 0.8 uM, SW480 over-expressing TMPRSS4, 48 hours

T1 sequence (Q9NRS4 205-437): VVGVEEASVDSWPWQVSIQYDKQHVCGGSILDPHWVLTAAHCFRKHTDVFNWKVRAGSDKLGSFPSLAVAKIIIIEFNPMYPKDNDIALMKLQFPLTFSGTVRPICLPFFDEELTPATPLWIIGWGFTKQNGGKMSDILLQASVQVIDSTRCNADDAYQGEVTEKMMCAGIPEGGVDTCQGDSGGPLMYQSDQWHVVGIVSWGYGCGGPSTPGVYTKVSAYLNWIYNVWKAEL

SMILES	Intracellular protease activity Inhibition % 10 uM [2, 3] [%]	inhibition at 10 µM [2, 3] [%]	inhibition at 30 µM [2, 4] [%]	inhibition at 100 µM [2, 5] [%]	also measured
O=C(Nc1cc(C(F)(F)F)cc(C(F)(F)F)c1)c1cc(Cl)ccc1O [Example 1, N-(3,5-bis(trifluoromethyl)phenyl)-5-chloro-2-hydroxybenzamide]	64	51 to 100	96	100	inhibition at 0.8 µM ([1]; SW480, 48 h): 76%
O=C(Nc1ccc(C(F)(F)F)cc1[N+](=O)[O-])c1cc(Cl)ccc1O [Example 36, 5-chloro-2-hydroxy-N-(2-nitro-4-trifluoromethyl-phenyl)-benzamide]	53	51 to 100			inhibition at 0.8 µM [1, 6]: 76%
O=C(Nc1cc(C(F)(F)F)cc(C(F)(F)F)c1)c1cc2ccccc2cc1O [Example 8, N-(3,5-bis(trifluoromethyl)phenyl)-2-hydroxy-3-naphthaamide]	58	51 to 100	96		inhibition at 0.8 µM [1, 6]: 72%
CC1CN(Cc2csc(NC(=O)c3cc(Cl)ccc3O)n2)CC(C)O1 (centres unmarked) [Example 73, 5-chloro-N-(4-((2,6-dimethylmorpholino)methyl)thiazol-2-yl)-2-hydroxybenzamide]	85				
O=C(Nc1ccc(F)c(C(F)(F)F)c1)c1cc(Cl)ccc1O [Example 4, 5-chloro-N-(4-fluoro-3-(trifluoromethyl)phenyl)-2-hydroxybenzamide]	64	51 to 100	86	98	
O=C(Nc1cc(C(F)(F)F)ccc1F)c1cc(Cl)ccc1O [Example 21, 5-chloro-N-(2-fluoro-5-(trifluoromethyl)phenyl)-2-hydroxybenzamide]			100		
O=C(Nc1cc(C(F)(F)F)cc(C(F)(F)F)c1Cl)c1cc(Cl)ccc1O [Example 29, 5-chloro-N-(2-chloro-3,5-bis-trifluoromethyl-phenyl)-2-hydroxy-benzamide]		43	100		
O=C(Nc1cc(C(F)(F)F)cc(C(F)(F)F)c1)c1ccc(C(F)(F)F)cc1O [Example 13, N-(3,5-bis(trifluoromethyl)phenyl)-4-(trifluoromethyl)-2-hydroxybenzamide]		32	79		
O=C(Nc1cc(C(F)(F)F)cc(C(F)(F)F)c1)c1cnc2ccccc2c1O [Example 68, N-(3,5-bis(trifluoromethyl)phenyl)-4-hydroxyquinoline-3-carboxamide]		0	0		
O=C(Nc1ncc(C(F)(F)F)cc1Cl)c1cc(Cl)ccc1O [Example 46, 5-chloro-N-(3-chloro-5-(trifluoromethyl)pyridine-2-yl)-2-hydroxybenzamide]			0	0	
O=C(NCc1cc(C(F)(F)F)cc(C(F)(F)F)c1)c1cc(Cl)ccc1O [Example 24, N-(3,5-bis-trifluoromethyl-benzyl)-5-chloro-2-hydroxy-benzamide]		36	63		
O=C(Nc1cc(C(F)(F)F)cc(C(F)(F)F)c1)c1cc(Cl)cc(Cl)c1O [Example 2, N-(3,5-bis(trifluoromethyl)phenyl)3,5-dichloro-2-hydroxybenzamide]			100		
O=C(Nc1nc2c(s1)CCCC2)c1cc(Cl)ccc1O [Example 70, 5-chloro-2-hydroxy-N-(4,5,6,7-tetrahydrobenzo[d]thiazol-2-yl)benzamide]	77				
O=C(Nc1cc(Cl)c(Cl)c(Cl)c1)c1cc(Cl)ccc1O [Example 66, 5-chloro-2-hydroxy-N-(3,4,5-trichloro-phenyl)benzamide]		6	23		
NCCc1ccc(S(=O)(=O)F)cc1 [AEBSF, reference compound]					TMPRSS4 serine protease active form activity (hydrolysis of peptide substrate) ([2]; 1 mM, trypsin and kallikrein peptide substrates): inhibited
O=C(Nc1cc(C(F)(F)F)cc(C(F)(F)F)c1)c1cccc(Cl)c1O [Example 26, N-(3,5-bis-trifluoromethyl-phenyl)-3-chloro-2-hydroxy-benzamide]	61	51 to 100	93		
COc1c(C(F)(F)F)cc(NC(=O)c2cc(Cl)ccc2O)cc1C(F)(F)F [Example 39, 5-chloro-2-hydroxy-N-(4-methoxy-3,5-bis-trifluoromethyl-phenyl)-benzamide]	56	51 to 100	80		
O=C(Nc1cc(C(F)(F)F)cc(C(F)(F)F)c1)c1ccccc1O [Example 5, N-(3,5-bis(trifluoromethyl)phenyl)-2-hydroxybenzamide]		0	20		

Now from value to compound, other results behind:

Intracellular protease activity Inhibition % 10 uM [2, 3] [%]	inhibition at 10 µM [2, 3] [%]	inhibition at 30 µM [2, 4] [%]	inhibition at 100 µM [2, 5] [%]	SMILES	also measured
		92	100	N#Cc1ccc(NC(=O)c2cc(Cl)ccc2O)c(Cl)c1 [Example 27, 5-chloro-N-(2-chloro-4-cyano-phenyl)-2-hydroxy-benzamide]	inhibition at 2 µM ([1]; 2 uM, SW480 over-expressing TMPRSS4, 48 hours): 54%
		14	55	O=C(Nc1ccc(Cl)cn1)c1cc(Cl)ccc1O [Example 42, 5-chloro-N-(5-chloropyridine-2-yl)-2-hydroxybenzamide]	
		6	39	O=C(Nc1ccc(Cl)nc1)c1cc(Cl)ccc1O [Example 45, 5-chloro-N-(6-chloropyridine-3-yl)-2-hydroxybenzamide]	
66	51 to 100			Cc1cnc(NC(=O)c2cc(Cl)ccc2O)s1 [Example 71, 5-chloro-2-hydroxy-N-(5-methylthiazole-2-yl)benzamide]	
	40	100		O=C(Nc1cc(C(F)(F)F)ccc1Br)c1cc(Cl)ccc1O [Example 20, N-(2-bromo-5-(trifluoromethyl)phenyl)-5-chloro-2-hydroxybenzamide]	
		0	67	Cc1csc(NC(=O)c2cc(Cl)ccc2O)n1 [Example 50, 5-chloro-2-hydroxy-N-(4-methylthiazole-2-yl)benzamide]	
		44	56	Cc1cc(C)cc(NC(=O)c2cc(Cl)ccc2O)c1 [Example 60, 5-chloro-N-(3,5-dimethylphenyl)-2-hydroxybenzamide]	
30				O=C(Nc1ccc(Br)c(C(F)(F)F)c1)c1cc(Cl)ccc1O [Example 63, N-(4-bromo-3-(trifluoromethyl)phenyl)-5-chloro-2-hydroxybenzamide]	Intracellular protease activity Inhibition % 30 uM [2, 4]: 46%; Intracellular protease activity Inhibition % 100 uM [2, 5]: 98%
		0	11	O=C(Nc1ccccn1)c1cc(Cl)ccc1O [Example 40, 5-chloro-2-hydroxy-N-(pyridine-2-yl)benzamide]	
	16			Cc1nc(NC(=O)c2cc(Cl)ccc2O)sc1C [Example 72, 5-chloro-N-(4,5-dimethylthiazol-2-yl)-2-hydroxybenzamide]	
